Experimental data published in patent publication US8431523B2, “Oligomeric biosurfactants in dermatocosmetic compositions” (priority 2006, dated 2013).
Non-standard residues stand in square brackets, D forms with d. Residues, ends and D or L forms follow the SMILES beside them. *: point of attachment. Palmitoyl = CCCCCCCCCCCCCCCC(=O)*; Myristoyl = CCCCCCCCCCCCCC(=O)*

Assays:
[1] = system: E. coli, P. aeruginosa, P. cepacia, S. aureus, including MRSA, S. epidermidis, and C. albicans; format: cell-based
Excerpt: By “antimicrobial” activity is meant the ability to inhibit the growth of at least one microbial organism selected from the group consisting E. coli, P. aeruginosa, S. aureus and C. albicans, as confirmed by optical density measurement (“OD”).
By “inhibition of growth” is meant reduction or absence of an increase greater than 5% in OD, a dimensionless measure of turbidity that is proportional to the amount of microbial cells present in a sample. For illustrative purposes, a OAB according to the present invention is added to a culture plate on which E. coli is present at a final concentration of about 5×10^3 cfu/ml. The plate is then incubated at about 37° C. for about 24 hours at which time the E. coli is resuspended by shaking, and OD is measured at about 600 nm. Thus, a reduction or absence of an increase greater than 5% in OD confirms the antimicrobial nature of the OAB with respect to E. coli.
Minimum inhibitory concentration (“MIC”) is a method well-known to those of skill in the art for expressing antimicrobial activity. A compound to be tested is serially diluted into growth medium, inoculated with culture and then incubated. The MIC is the lowest dilution of compound that inhibits or prevents growth of the target microorganism.
A further aspect of the present invention is directed to oligomeric acylated biosurfactants having a CMC of less than about 100 ppm in an aqueous environment of MEM Solution that reduces the surface tension of the MEM Solution to less than about […] where the OAB consists essentially of two to nine amino acid residues, at least one of which is charged, and has a MIC of less than 100 ppm for at least two of the following microorganisms: E. coli, P. aeruginosa, P. cepacia, S. aureus, including MRSA, S. epidermidis, and C. albicans. OABs meeting this criterion are selected from the group consisting of: Myr-GR-amide (P300); Myr-KK-amide (P315); Pal-HR-amide (P320); Myr-KK-acid (P347); SEQ ID NO 79 (P367); Myr-GHR-amide (P245); Pal-GHR-amide (P250); Myr-GRK-amide (P303); Pal-G-H—[R]^D-amide (P366); SEQ ID NO 84 (368); SEQ ID NO 58 (P370); SEQ ID NO 59 (P360); SEQ ID NO 60 (P373); SEQ ID NO 61 (P376); SEQ ID NO 62 (P369); SEQ ID NO 63 (P379); SEQ ID NO 64 (P381); SEQ ID NO 65 (P416); SEQ ID NO 66 (P383); and SEQ ID NO 67 (P289).

fibroblast proliferation = assay: Cyquant Cell Proliferation Assay; format: cell-based
Experimental: For purposes of the present invention, proliferation is assessed using the Cyquant® Cell Proliferation Assay from Molecular Probes. This assay measures increased production of cellular nucleic acids that, in turn, results in increased binding of fluorescent dye.

P. cepacia = assay: Minimum inhibitory concentration, P. cepacia; format: cell-based, Pseudomonas cepacia
Excerpt: By “antimicrobial” activity is meant the ability to inhibit the growth of at least one microbial organism selected from the group consisting E. coli, P. aeruginosa, S. aureus and C. albicans, as confirmed by optical density measurement (“OD”). By “inhibition of growth” is meant reduction or absence of an increase greater than 5% in OD, a dimensionless measure of turbidity that is proportional to the amount of microbial cells present in a sample. For illustrative purposes, a OAB according to the present invention is added to a culture plate on which E. coli is present at a final concentration of about 5×10^3 cfu/ml. The plate is then incubated at about 37° C. for about 24 hours at which time the E. coli is resuspended by shaking, and OD is measured at about 600 nm. Thus, a reduction or absence of an increase greater than 5% in OD confirms the antimicrobial nature of the OAB with respect to E. coli. Minimum inhibitory concentration (“MIC”) is a method well-known to those of skill in the art for expressing antimicrobial activity. A compound to be tested is serially diluted into growth medium, inoculated with culture and then incubated. The MIC is the lowest dilution of compound that inhibits or prevents growth of the target microorganism.

SMILES | MIC for at least two of the listed microorganisms [1] | MIC(P. cepacia) (P. cepacia) [ppm] | increase fibroblast proliferation (qualitative) (fibroblast proliferation)
CCCCCCCCCCCCCC(=O)NCC(=O)N[C@@H](Cc1c[nH]cn1)C(=O)N[C@@H](CCCNC(=N)N)C(N)=O [P245, Myr-GHR-amide] (Myristoyl-Gly-His-Arg-NH2) | less than 100 ppm | – | –
CCCCCCCCCCCCCCCC(=O)NCC(=O)N[C@@H](Cc1c[nH]cn1)C(=O)N[C@@H](CCCNC(=N)N)C(N)=O [P250, Pal-GHR-amide] (Palmitoyl-Gly-His-Arg-NH2) | less than 100 ppm | – | –
CCCCCCCCCCCCCC(=O)N[C@@H](CC(C)C)C(=O)N[C@@H](CCCCN)C(=O)N[C@@H](C)C(=O)N[C@@H](CCCCN)C(N)=O [P289, Myr-LKAK-amide] (Myristoyl-LKAK-NH2) | less than 100 ppm | – | –
CCCCCCCCCCCCCC(=O)NCC(=O)N[C@@H](CCCNC(=N)N)C(N)=O [P300, Myr-GR-amide] (Myristoyl-Gly-Arg-NH2) | less than 100 ppm | – | –
CCCCCCCCCCCCCC(=O)N[C@@H](C)C(=O)N[C@@H](Cc1c[nH]cn1)C(=O)N[C@@H](CCCNC(=N)N)C(N)=O [P322, Myr-AHR-amide] (Myristoyl-Ala-His-Arg-NH2) | – | ≤ 100 | increase fibroblast proliferation
CCCCCCCCCCCCCC(=O)N[C@@H](CCCNC(=N)N)C(=O)N[C@@H](CCCNC(=N)N)C(=O)N[C@@H](CCCNC(=N)N)C(N)=O [P342, Myr-RRR-amide] (Myristoyl-Arg-Arg-Arg-NH2) | – | ≤ 100 | increase fibroblast proliferation
CCCCCCCCCCCCCC(=O)N[C@@H](CCCCN)C(=O)N[C@@H](CCCCN)C(=O)N[C@@H](CCCCN)C(=O)O [P348, Myr-KKK-acid] | – | ≤ 100 | increase fibroblast proliferation
CCCCCCCCCCCCCC(=O)N[C@@H](CCCCN)C(=O)N[C@@H](CCCCN)C(=O)N[C@@H](C)C(=O)N[C@@H](CC(C)C)C(=O)N[C@@H](CCCCN)C(=O)O [P349, Myr-KKALK-acid] (Myristoyl-KKALK-OH) | – | ≤ 100 | increase fibroblast proliferation
CCCCCCCCCCCCCC(=O)N[C@@H](CCCCN)C(=O)N[C@@H](CC(C)C)C(=O)N[C@@H](C)C(=O)N[C@@H](CCCCN)C(=O)N[C@@H](CCCCN)C(=O)O [P351, Myr-KLAKK-acid] (Myristoyl-KLAKK-OH) | – | ≤ 100 | increase fibroblast proliferation
CCCCCCCCCCCCCC(=O)N[C@@H](CCCCN)C(=O)N[C@@H](CCCCN)C(=O)N[C@@H](C)C(=O)N[C@@H](CC(C)C)C(=O)O [P362, Myr-KKAL-acid] (Myristoyl-KKAL-OH) | – | ≤ 100 | increase fibroblast proliferation
CCCCCCCCCCCCCC(=O)N[C@@H](CC(C)C)C(=O)N[C@@H](C)C(=O)N[C@@H](CCCCN)C(=O)N[C@@H](CCCCN)C(=O)O [P363, Myr-LAKK-acid] (Myristoyl-LAKK-OH) | – | ≤ 100 | increase fibroblast proliferation
CCCCCCCCCCCCCC(=O)N[C@H](C(=O)N[C@@H](C)C(=O)N[C@@H](CCCCN)C(=O)N[C@@H](CCCCN)C(N)=O)[C@@H](C)CC [P371, Myr-IAKK-amide] (Myristoyl-IAKK-NH2) | – | ≤ 100 | increase fibroblast proliferation
CCCCCCCCCCCCCC(=O)N[C@@H](CC(C)C)C(=O)N[C@@H](CO)C(=O)N[C@@H](CCCCN)C(=O)N[C@@H](CCCCN)C(N)=O [P372, Myr-LSKK-amide] (Myristoyl-LSKK-NH2) | – | ≤ 100 | increase fibroblast proliferation

Further lines, with some results ahead:

MIC for at least two of the listed microorganisms [1] | MIC(P. cepacia) (P. cepacia) [ppm] | SMILES | increase fibroblast proliferation (qualitative) (fibroblast proliferation)
– | ≤ 100 | CCCCCCCCCCCCCC(=O)N[C@@H](CCCCN)C(=O)N[C@@H](CCCCN)C(=O)NCC(=O)N[C@@H](CC(C)C)C(=O)N[C@@H](CCCCN)C(N)=O [P374, Myr-KKGLK-amide] (Myristoyl-KKGLK-NH2) | increase fibroblast proliferation
– | ≤ 100 | CCCCCCCCCCCCCC(=O)N[C@@H](CCCCN)C(=O)N[C@@H](CCCCN)C(=O)NCC(=O)N[C@H](C(=O)N[C@H](CCCCN)C(N)=O)[C@@H](C)CC [P390, Myr-KKG1-[K]^D-amide] (Myristoyl-KKGI[dK]-NH2) | increase fibroblast proliferation
– | ≤ 100 | CCCCCCCCCCCCCC(=O)N[C@@H](CCCCN)C(=O)N[C@@H](CCCCN)C(=O)NCC(=O)N[C@@H](CC(C)C)C(=O)N[C@H](CCCCN)C(N)=O [P394, Myr-KKGL-[K]^D-amide] (Myristoyl-KKGL[dK]-NH2) | increase fibroblast proliferation
– | ≤ 100 | CCCCCCCCCCCCCC(=O)N[C@@H](CCCCN)C(=O)N[C@@H](CCCCN)C(=O)N[C@@H](CO)C(=O)N[C@@H](CC(C)C)C(=O)N[C@H](CCCCN)C(N)=O [P395, Myr-KKSL-[K]^D-amide] (Myristoyl-KKSL[dK]-NH2) | increase fibroblast proliferation
– | ≤ 100 | CCCCCCCCCCCCCC(=O)N[C@@H](CCCCN)C(=O)N[C@@H](CC(C)C)C(=O)N[C@@H](C)C(=O)N[C@@H](CCCCN)C(=O)N[C@@H](CCCCN)C(=O)N[C@H](CC(C)C)C(N)=O [P396, Myr-KLAKK-[L]^D-amide] (Myristoyl-KLAKK[dL]-NH2) | increase fibroblast proliferation
– | ≤ 100 | CCCCCCCCCCCCCC(=O)NCC(=O)NCC(=O)N[C@@H](CCCCN)C(=O)N[C@@H](CCCNC(=N)N)C(N)=O [P399, Myr-GGKR-amide] (Myristoyl-GGKR-NH2) | increase fibroblast proliferation
– | ≤ 100 | CCCCCCCCCCCCCC(=O)N[C@@H](C)C(=O)N[C@@H](C)C(=O)N[C@@H](CCCCN)C(=O)N[C@@H](CCCNC(=N)N)C(N)=O [P400, Myr-AAKR-amide] (Myristoyl-AAKR-NH2) | increase fibroblast proliferation
– | ≤ 100 | CCCCCCCCCCCCCC(=O)N[C@@H](C)C(=O)N[C@@H](CCCCN)C(=O)N[C@@H](CCCCN)C(=O)NCC(=O)N[C@@H](CC(C)C)C(=O)N[C@H](CCCCN)C(N)=O [P402, Myr-AKKGL-[K]^D-amide] (Myristoyl-AKKGL[dK]-NH2) | increase fibroblast proliferation
– | ≤ 100 | CCCCCCCCCCCCCC(=O)NCC(=O)N[C@@H](CCCCN)C(=O)N[C@@H](CCCCN)C(=O)N[C@@H](C)C(=O)N[C@@H](CC(C)C)C(=O)N[C@H](CCCCN)C(N)=O [P404, Myr-GKKAL-[K]^D-amide] (Myristoyl-GKKAL[dK]-NH2) | increase fibroblast proliferation
– | ≤ 100 | CCCCCCCCCCCCCC(=O)N[C@@H](CO)C(=O)N[C@@H](CCCCN)C(=O)N[C@@H](CCCCN)C(=O)N[C@@H](C)C(=O)N[C@@H](CC(C)C)C(=O)N[C@H](CCCCN)C(N)=O [P408, Myr-SKKAL-[K]^D-amide] (Myristoyl-SKKAL[dK]-NH2) | increase fibroblast proliferation
